Experimental findings from article PMC5606850, “Acidic C-terminal domains autoregulate the RNA chaperone Hfq” (eLife, 2017) are described below.

A value given as a limit tells only on which side of the number the result lay.

The test system of one assay is ChiX sRNA and chiP mRNA. As to the kind of experiment: ChiX sRNA-chiP mRNA annealing, EMSA. The assay is classed as biochemical, E. coli. As to conditions: 10 °C; for time to form ternary complex with ChiX and chiP: 5 nM ChiX, 30 nM chiP; for stability of ChiX·Hfq·chiP ternary complex: 33.3 nM Hfq hexamer, TNK buffer. The method, then:
Figure 4. Shortening the CTD increases auto-inhibition by acidic residues. (A) Observed annealing rate constants for 100 nM target RNA and 50 nM molecular beacon with 0–200 nM Hfq hexamer at 30°C, measured by stopped-flow fluorescence. Black, Hfq102; red, Hfq-sCTD; cyan, Hfq65. (B) Fluorescence anisotropy assay for RNA binding and release. In stopped-flow FRET experiments, the dsRNA is released after pairing with its complementary strand ([Panja et al., 2013]; [Santiago-Frangos et al., 2016]). […] Remaining RNA was displaced from Hfq by excess ssDNA (400 nM DNA2). The averages and standard deviations for three trials are plotted for each Hfq variant. […] (D) Annealing of 5 nM ^32P-ChiX sRNA with 30 nM chiP mRNA without Hfq, or with Hfq65, Hfq102 or Hfq-sCTD, as indicated above each lane. Samples were loaded on a native polyacrylamide gel 60 min or 20 s after the components were mixed. Full gel images are in Figure 4—figure supplement 2. (E) Fractions of free ChiX (black), ChiX·chiP dsRNA (light grey), ChiX·Hfq·chiP ternary complex (hatched) and ChiX·Hfq binary complex (dark grey) after 4 min of annealing, as analyzed by EMSA (Figure 4—figure supplement 2). Figure 4—figure supplement 1. Effect of CTD length on RNA oligomer annealing kinetics. Annealing of 100 nM Target RNA to 50 nM beacon RNA by Hfq variants was measured by stopped flow fluorescence at 30°C in 1 × TNK buffer. (A) Target RNA annealed by Hfq65 (no CTD), Hfq102 (complete CTD) or Hfq-sCTD (shortened linker CTD). (B) Target-U6 (proximal) annealed by Hfq65, Hfq102 or Hfq-sCTD. (C) Target-A18 annealed Hfq65, Hfq102 or Hfq-sCTD. The change in fluorescence emission intensity was normalized to the maximum fluorescence within an experiment. The average of five measurements is shown per progress curve. Annealing data were also collected for 0–200 nM Hfq hexamer. All progress curves were fitted to single- or double-exponential rate equations to obtain kobs, as previously described ([Santiago-Frangos et al., 2016]). [drawing 7] Figure 4—figure supplement 2. Effect of CTD length on sRNA·mRNA annealing. EMSAs of the annealing of 5 nM ^32P-ChiX to 30 nM chiP ([Rasmussen et al., 2009]) at 10°C in 1 × TNK buffer. Reactions were done (A) without Hfq, or with 33.3 nM hexamer (B) Hfq102, (C) Hfq65 or (D) Hfq-sCTD, Control reactions with ChiX only, ChiX and chiP mRNA, ChiX and Hfq or three components were loaded at the beginning (left) and end (right) of each time course, as indicated above the lanes. In the absence of Hfq, only 20% of ChiX·chiP annealed after 30 min. In the presence of all Hfq variants, at least 50% ChiX was in a ternary complex containing ChiX·Hfq·chiP within 1 min, and annealing reached a plateau within 2 min.
To determine whether the above results on RNA oligomers apply to natural RNA substrates for Hfq, we examined the annealing of the Class II sRNA ChiX to the mRNA chiP via electrophoretic mobility shift assays (EMSAs). Because the mRNA targets of class II sRNAs interact with the rim of Hfq ([Schu et al., 2015]; [Małecka et al., 2015]), we reasoned that this sRNA-mRNA pair would be sensitive to displacement by the CTD. Low nanomolar amounts of ChiX and chiP anneal very slowly at 10°C, in the absence of Hfq (Figure 4—figure supplement 2). Whereas, Hfq102, Hfq65 and Hfq-sCTD all form a ternary complex with ChiX and chiP within 20 s (Figure 4D), reaching equilibrium in a few minutes (Figure 4—figure supplement 2). […] Less ternary complex was formed by Hfq102, and the least by Hfq-sCTD.

The subject of a further assay is Target-A18. The assay is described as follows: RNA annealing kinetics (molecular beacon with Target-A18), stopped-flow fluorescence. The assay is classed as biochemical. As to conditions: 50 nM molecular beacon, 100 nM Target-A18, 0–200 nM Hfq hexamer, 30 °C. The method, then:
Figure 4. Shortening the CTD increases auto-inhibition by acidic residues. (A) Observed annealing rate constants for 100 nM target RNA and 50 nM molecular beacon with 0–200 nM Hfq hexamer at 30°C, measured by stopped-flow fluorescence. Black, Hfq102; red, Hfq-sCTD; cyan, Hfq65. (B) Fluorescence anisotropy assay for RNA binding and release. In stopped-flow FRET experiments, the dsRNA is released after pairing with its complementary strand ([Panja et al., 2013]; [Santiago-Frangos et al., 2016]). […] Remaining RNA was displaced from Hfq by excess ssDNA (400 nM DNA2). The averages and standard deviations for three trials are plotted for each Hfq variant. […] (D) Annealing of 5 nM ^32P-ChiX sRNA with 30 nM chiP mRNA without Hfq, or with Hfq65, Hfq102 or Hfq-sCTD, as indicated above each lane. Samples were loaded on a native polyacrylamide gel 60 min or 20 s after the components were mixed. […] (E) Fractions of free ChiX (black), ChiX·chiP dsRNA (light grey), ChiX·Hfq·chiP ternary complex (hatched) and ChiX·Hfq binary complex (dark grey) after 4 min of annealing, as analyzed by EMSA (Figure 4—figure supplement 2). […] Annealing of 100 nM Target RNA to 50 nM beacon RNA by Hfq variants was measured by stopped flow fluorescence at 30°C in 1 × TNK buffer. […] The change in fluorescence emission intensity was normalized to the maximum fluorescence within an experiment. […]

In the case of “Hfq65: truncated E. coli Hfq variant lacking the CTD”, in the assay with ChiX sRNA and chiP mRNA, the “time to form ternary complex with ChiX and chiP” value is not above 20 s; the “stability of ChiX·Hfq·chiP ternary complex” value was “most stable”. Moreover, the “ChiX-Hfq binary complex remaining” value in the assay with ChiX sRNA and chiP mRNA (after 20 s) is reported as “almost no ChiX-Hfq65 binary complex remaining after 20 s”. Further, the “annealing acceleration for Target-A18 compared to no Hfq” value with Target-A18 is recorded as “roughly 100 fold”.

On to Hfq102: full-length E. coli Hfq, for which, in the assay on ChiX sRNA and chiP mRNA, the “time to form ternary complex with ChiX and chiP” value is listed as not above 20 s; the “stability of ChiX·Hfq·chiP ternary complex” value is listed as “medium”. Also, in the assay on Target-A18, the “annealing acceleration for Target-A18 compared to no Hfq” value was “roughly 100 fold”.
